Assay results from PubChem BioAssay (NCI).
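Protocol summary: plate cells (96-well), add compound at 5 concentrations, incubate 48 h, interpolate endpoints linearly. Here, GI50 denotes the concentration required for 50% inhibition of growth. TGI: concentration producing complete growth inhibition.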

Legend:
Test in all cases: NCI anticancer screen, dose series, 48 h
[1] = system: HL-60(TB) leukemia
[2] = system: ACHN renal
[3] = system: SNB-19 CNS
[4] = system: MDA-MB-231 breast
[5] = system: A549 NSCLC
[6] = system: HOP-92 NSCLC
[7] = system: M14 melanoma
[8] = system: PC-3 prostate
[9] = system: EKVX NSCLC
[10] = system: A498 renal
[11] = system: HOP-62 NSCLC
[12] = system: MDA-MB-435
[13] = system: HS 578T breast
[14] = system: BT-549 breast
[15] = system: SF-295 CNS
[16] = system: MOLT-4 leukemia
[17] = system: KM12 colon
[18] = system: LOX IMVI melanoma
[19] = system: 786-0 renal
[20] = system: OVCAR-8 ovarian
[21] = system: COLO 205 colon
[22] = system: SW-620 colon
[23] = system: CAKI-1 renal
[24] = system: NCI-H23 lung
[25] = system: UACC-257 melanoma
[26] = system: SN12C renal
[27] = system: CCRF-CEM leukemia
[28] = system: RPMI-8226 leukemia
[29] = system: IGROV1 ovarian

`COC(=O)c1c2c(c(C)[n+]([O-])c1C)C(=O)C=C(NCc1ccc(Cl)cc1)C2=O` was tested. Which GI50 [1] did it give?
Its GI50 is 324 nM.

And the TGI [1]?
Its TGI is 1550 nM.

And the GI50 [2]?
Its GI50 is 233 nM.

And the TGI [2]?
Its TGI is 1910 nM.

And the GI50 [3]?
Its GI50 is 1160 nM.

And the TGI [3]?
Its TGI is 2390 nM.

What about the GI50 [4] of the same compound?
The GI50 was 286 nM.

What about the TGI [4] of the same compound?
The TGI was 3620 nM.

What about the GI50 [5] of the same compound?
Its GI50 is 543 nM.

And the TGI [5]?
Its TGI is 3050 nM.

What about the GI50 [6] of the same compound?
Its GI50 is 1930 nM.

What about the TGI [6] of the same compound?
Its TGI is 4090 nM.

What about the GI50 [7] of the same compound?
The GI50 was 202 nM.

What about the TGI [7] of the same compound?
Its TGI is 1680 nM.

And the GI50 [8]?
Its GI50 is 289 nM.

And the TGI [8]?
Its TGI is 3170 nM.

And the GI50 [9]?
The GI50 was 783 nM.

And the TGI [9]?
The TGI was 2390 nM.

What about the GI50 [10] of the same compound?
The GI50 was 1210 nM.

And the TGI [10]?
Its TGI is 2470 nM.

And the GI50 [11]?
Its GI50 is 1150 nM.

And the TGI [11]?
The TGI was 3460 nM.

And the GI50 [12]?
The GI50 was 89.5 nM.

What about the TGI [12] of the same compound?
The TGI was 229 nM.

What about the GI50 [13] of the same compound?
Its GI50 is 1770 nM.

What about the TGI [13] of the same compound?
The TGI was 6500 nM.

And the GI50 [14]?
Its GI50 is 1220 nM.

And the TGI [14]?
The TGI was 2580 nM.

What about the GI50 [15] of the same compound?
The GI50 was 362 nM.

What about the TGI [15] of the same compound?
The TGI was 1580 nM.

And the GI50 [16]?
Its GI50 is 514 nM.

And the TGI [16]?
Its TGI is 2920 nM.

And the GI50 [17]?
Its GI50 is 127 nM.

What about the TGI [17] of the same compound?
Its TGI is 2000 nM.

And the GI50 [18]?
The GI50 was 53 nM.

What about the TGI [18] of the same compound?
The TGI was 1600 nM.

And the GI50 [19]?
Its GI50 is 1320 nM.

What about the TGI [19] of the same compound?
The TGI was 3570 nM.

What about the GI50 [20] of the same compound?
Its GI50 is 296 nM.

And the TGI [20]?
The TGI was 1440 nM.

What about the GI50 [21] of the same compound?
Its GI50 is 278 nM.

And the TGI [21]?
The TGI was 963 nM.

What about the GI50 [22] of the same compound?
Its GI50 is 143 nM.

What about the TGI [22] of the same compound?
The TGI was 1370 nM.

What about the GI50 [23] of the same compound?
Its GI50 is 109 nM.

And the TGI [23]?
Its TGI is 2180 nM.

And the GI50 [24]?
The GI50 was 572 nM.

And the TGI [24]?
Its TGI is 2900 nM.

What about the GI50 [25] of the same compound?
The GI50 was 234 nM.

What about the TGI [25] of the same compound?
The TGI was 868 nM.

What about the GI50 [26] of the same compound?
Its GI50 is 309 nM.

And the TGI [26]?
Its TGI is 1240 nM.

What about the GI50 [27] of the same compound?
Its GI50 is 471 nM.

And the TGI [27]?
The TGI was 4200 nM.

What about the GI50 [28] of the same compound?
The GI50 was 1240 nM.

And the TGI [28]?
The TGI was 4700 nM.

And the GI50 [29]?
Its GI50 is 346 nM.

What about the TGI [29] of the same compound?
The TGI was 1820 nM.
